In article PMC7356613, “Unsymmetrically-Substituted 5,12-dihydrodibenzo[b,f][1,4]diazocine-6,11-dione Scaffold—A Useful Tool for Bioactive Molecules Design” (Molecules, 2020):
Where two headings read alike, the source gives them in different places.

Legend:
[1] = system: EUFA30 cells (non-cancerous human fibroblasts); experiment: Alamar Blue cytotoxicity assay, EUFA30; assay type: cell-based; details: Fibroblast; for IC50: read-out: IC50 based on survival of cells
Description: (§1) HeLa, U87, BICR18, EUFA30 cell lines were cultured in DMEM medium (Life Technology) supplemented with 10% fetal bovine serum (Life Technology) and 0.1% antibiotics, penicillin and streptomycin (Life Technology). Cells were grown in a humidified atmosphere of CO2/air (5/95%) at 37 °C.
(§2) Exponentially growing cells were seeded onto a 96-well plate at the density of 2 × 10^3 cells/well, cultured for 18 h, and treated with newly synthesized derivatives at concentrations 1–300 µM, or with DMSO as a control, for 24 or 48 h. Alamar Blue (Invitrogen) was added accordingly to manufacturer protocol. After 4 h, light emission at 590 nm was measured with excitation at 560 nm using a scanning multiwell spectrophotometer (DTX 880, Beckman Coulter). The experiments were carried out at least three times with three replicates for each inhibitor concentration. After background subtraction, inhibition rate, IC50 was calculated as the concentration of the component inhibiting cell growth by 50%. All the calculations were performed using Origin 9.0 software.

[2] = system: HeLa cells (cervix adenocarcinoma); experiment: Alamar Blue cytotoxicity assay, HeLa; assay type: cell-based; details: Homo sapiens; for IC50: read-out: IC50 based on survival of cells
Description: as §1, §2

[3] = system: BICR18 cells (laryngeal squamous cell carcinoma); experiment: Alamar Blue cytotoxicity assay, BICR18; assay type: cell-based; details: for IC50: read-out: IC50 based on survival of cells; for inhibition at 300 µM: bracketed values, read-out: proliferation inhibition expressed as a percentage at highest concentration used
Description: as §1, §2

[4] = system: U87 cells (human primary glioblastoma); experiment: Alamar Blue cytotoxicity assay, U87; assay type: cell-based; details: U-87 MG; for IC50: read-out: IC50 based on survival of cells
Description: as §1, §2

EUFA30 cells = experiment: Annexin V-FITC / propidium iodide flow cytometry, EUFA30; assay type: cell-based, human; details: EUFA30, 200 µM, 24 h; for dead cell fraction: early apoptosis: non-treated control 0.3%; for dead cell fraction: late apoptosis: non-treated control 0.4%; for dead cell fraction: necrosis: non-treated control 5.7%
Description: as §1
(§3) The Annexin V-FITC apoptosis detection kit (BD Biosciences) was used to detect apoptosis by flow cytometry. Cells were seeded at Petri dishes, cultured for 18 h with tested agents applied for 24 h. DMSO was added as the non-treated control and camptothecin (CPT) as the positive control. Subsequently, cells were washed with PBS, resuspended in binding buffer at a concentration of 2 × 10^6 cells/mL, and anti-Annexin V FITC-conjugated antibody and propidium iodide were added to 100 µL aliquots. The mixtures were incubated for 15 min at room temperature, supplemented with binding buffer to 500 µL and processed by BD FACSCalibur (BD Biosciences). Data were analyzed in Flowing Software version 2.5.1 (Flowing Software, http://www.uskonaskel.fi/flowingsoftware).

HeLa cells = experiment: Annexin V-FITC / propidium iodide flow cytometry, HeLa; assay type: cell-based; details: 200 µM, 24 h, non-treated control 5.4%
Description: as §1, §3

[5] = system: EUFA30, HeLa, BICR18, U87 cells; experiment: Alamar Blue cytotoxicity assay, statements over all tested cell lines; assay type: cell-based; details: Homo sapiens, concentrations 1-300 µM, group range = lowest to highest value, read-out: IC50 across the tested cell lines
Description: as §1, §2

Row | SMILES | IC50 ([1]; EUFA30, 24 h of treatment) [µM] | IC50 ([1]; EUFA30, 48 h of treatment, N.A. = not active) [µM] | IC50 ([2]; 24 h of treatment) [µM] | IC50 ([2]; 48 h of treatment, N.A. = not active) [µM] | IC50 ([3]; BICR18, 24 h of treatment) [µM] | IC50 ([3]; BICR18, 48 h of treatment, N.A. = not active) [µM] | IC50 ([4]; U87, 24 h of treatment) [µM] | IC50 ([4]; U87, 48 h of treatment, N.A. = not active) [µM] | dead cell fraction: early apoptosis (EUFA30 cells) [%] | dead cell fraction: late apoptosis (EUFA30 cells) [%] | dead cell fraction: necrosis (EUFA30 cells) [%] | number of necrotic cells (HeLa cells) [%] | IC50 [5] [µM] | inhibition at 300 µM ([1]; EUFA30, 48 h, 300 µM, bracketed values, read-out: proliferation inhibition expressed as a percentage at highest concentration used) [%] | inhibition at 300 µM ([2]; 48 h, 300 µM, bracketed values, read-out: proliferation inhibition expressed as a percentage at highest concentration used) [%] | inhibition at 300 µM ([3]; BICR18, 24 h) [%] | inhibition at 300 µM ([3]; BICR18, 48 h) [%] | inhibition at 300 µM ([4]; U87, 48 h, 300 µM, bracketed values, read-out: proliferation inhibition expressed as a percentage at highest concentration used) [%]
1 | CN1C(=O)c2c(Cl)c(Cl)c(Cl)c(Cl)c2C(=O)Nc2ccccc21 [Compound 3h, 7,8,9,10-tetrachloro-5-methyl-5,12-dihydrodibenzo[b,f][1,4]diazocine-6,11-dione] | 144 ± 10.6 | 153 ± 4.1 | 132 ± 6 | 251 ± 5.1 | 93.7 ± 5.2 | 178 ± 3 | 97.1 ± 13.2 | 294 ± 22.4 | 9.0 | 1.8 | 15.6 | 15.3 | 93.7 to 323 | – | – | – | – | –
2 | CN1C(=O)c2ccccc2C(=O)Nc2cc(Cl)c(Cl)cc21 [Compound 3f, 2,3-dichloro-5-methyl-5,12-dihydrodibenzo[b,f][1,4]diazocine-6,11-dione] | 320 ± 36 | – | 298 ± 11 | – | – | – | 207 ± 23.6 | – | 6.9 | 1.6 | 4.3 | 15.3 | 93.7 to 323 | 19.1 | 7.8 | 47.5 | 7.6 | 29.9
